Legend:
Assay type in all cases: biochemical
[1] = biological target: T1, human HDAC3/SMRT heterodimer (Homo sapiens, UniProt O15379); assay: Human HDAC enzyme inhibitor Fluor-de-Lys assay, HDAC3/SMRT; conditions: HDAC3/SMRT 0.3 nM enzyme, 20 μM substrate BML-KI104, 10 μM IP4, 3 h pre-incubation, 60 min reaction; read-out: HDAC3_IC50
T1 construct: Full length human HDAC3-FLAG was expressed in HEK-293F cells along with SMRT; host or cells: HEK-293F cells
Description: (§1) Recombinant human HDAC8 (catalog number BML-SE145-0100) and HDAC10 (catalog number BML-SE559-0050) enzymes, HDAC substrates BML-KI104 and BML-KI178, and HDAC developer solutions BML-KI105 and BML-KI176 were purchased from Enzo Life Sciences (Farmingdale, NY). Recombinant human HDAC5 and HDAC11 were purchased from BPS Bioscience (San Diego, CA)(catalog numbers 50045 and 50021). Substrate Boc-Lys(TFA)-AMC was obtained from Bachem (Bupendorf, Switzerland) (catalog number 1-1985). HDAC inhibitor suberoylanilide hydroxamic acid (SAHA) was obtained from Indofine (Hillsborough Township, NJ) and trichostatin A (TSA) was obtained from Sigma-Aldrich (St. Louis, MO). […] HEPES pH 8.0 was obtained from Boston BioProducts (Ashland, MA), Tween-20 from Fisher Scientific (Hampton, NH)(catalog number BP337), TCEP from Calbiochem and 7.5% bovine serum albumin (BSA) from Life Technologies (Carlsbad, CA) (catalog number 15260037). 384-well, black assay plates were obtained from Corning (Corning, NY) (catalog number 3575).
(§2) Recombinant human HDAC1, HDAC2, and HDAC3/SMRT heterodimer were prepared by Merck Research Laboratories. […] The eluted protein was then passed over an anti-HDAC1 immunoaffinity column to remove any complexes containing HDAC1. […]
(§3) The histone deacetylase activities of HDAC1, HDAC2, HDAC3, HDAC6, and HDAC8 were measured in modified Fluor-de-Lys assays in 384-well format. In this assay, HDAC enzymes are initially incubated with an ε-acetyl (or -trifluoroacetyl)-L-lysine-containing substrate with a C-terminal amide having aminomethylcoumarin as the amine component. HDACs cleave the ε-acetyl group, rendering the resulting product susceptible to AMC cleavage by trypsin. The released AMC is then detected by its fluorescence.
(§4) The HDAC 1, 2 assays employed buffer A, which contained 20 mM HEPES, pH 8.0, 1 mM MgCl2, 137 mM NaCl, 2.7 mM KCl, 0.05% BSA. The HDAC3/SMRT assay employed buffer B, consisting of 20 mM HEPES, pH 8.0, 1 mM MgCl2, 50 mM NaCl, 2.7 mM KCl, 0.05% BSA, 0.005% Tween 20, and 10 μM IP4. The HDAC6 assay employed buffer C, consisting of 20 mM HEPES, pH 8.0, 1 mM MgCl2, 137 mM NaCl, 2.7 mM KCl, 0.5 mM TCEP (Calbiochem) and 0.05% BSA. The HDAC8 assay employed buffer D, consisting of 20 mM HEPES, pH 8.0, 1 mM MgCl2, 100 mM NaCl, 20 mM KCl, 0.1% n-octyl-β-D-glucoside (Anatrace, Maumee, OH) and 0.05% BSA. All steps were performed at room temperature (23° C.). The assay was performed by pre-incubating serial dilutions of test compounds with the target HDAC prior to initiation with substrate. Each compound was titrated in a 10-point dose response, using a 1:3 fold dilution scheme, with 0.15 ul of solution added by ECHO555 to the plate, followed by the addition of 20 μl of the appropriate HDAC isoform diluted in appropriate assay buffer. […] Final conditions used for each assay were: 1. HDAC 1, 0.3 nM total enzyme, 20 μM substrate BML-K1104; 2. HDAC 2, 1.5 nM total enzyme, 40 μM substrate BML-K1104; 3. HDAC 3/SMRT, 0.3 nM total enzyme, 20 μM substrate BML-K1104; 4. HDAC 6, 1.3 nM total enzyme, 2.5 μM substrate BML-K1104; 5. HDAC 8, 1.3 nM total enzyme, 200 μM substrate BML-K1178; the final high dose of test compound was 30 μM. […] The reactions were stopped and developed by addition of 30 ul of HDAC developer solution containing a saturating level of HDAC inhibitor as follows: 1.

human HDAC2 = biological target: T2, human HDAC2 (Homo sapiens, UniProt Q92769); assay: Human HDAC enzyme inhibitor Fluor-de-Lys assay, HDAC2; conditions: 1.5 nM enzyme, 40 μM substrate BML-KI104, 3 h pre-incubation, 60 min reaction; read-out: HDAC2_IC50
T2 construct: Full length human HDAC2-FLAG was expressed in baculovirus infected Sf9 cells; host or cells: baculovirus infected Sf9 cells
T2 sequence (Q92769 whole entry): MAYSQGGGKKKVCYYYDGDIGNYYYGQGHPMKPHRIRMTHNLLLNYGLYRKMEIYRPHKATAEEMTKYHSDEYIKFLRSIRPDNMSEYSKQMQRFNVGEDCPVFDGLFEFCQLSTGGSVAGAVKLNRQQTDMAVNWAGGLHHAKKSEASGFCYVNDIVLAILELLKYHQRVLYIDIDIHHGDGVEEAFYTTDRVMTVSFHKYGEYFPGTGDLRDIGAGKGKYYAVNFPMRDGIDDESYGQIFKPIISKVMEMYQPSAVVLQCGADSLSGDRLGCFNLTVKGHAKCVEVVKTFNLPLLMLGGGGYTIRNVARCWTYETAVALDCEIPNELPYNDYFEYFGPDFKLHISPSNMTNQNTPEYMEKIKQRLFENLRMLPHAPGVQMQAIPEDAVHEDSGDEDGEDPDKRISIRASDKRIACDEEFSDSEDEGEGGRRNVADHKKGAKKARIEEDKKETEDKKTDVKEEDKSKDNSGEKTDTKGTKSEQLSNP
Description: as §1, §2, §3, §4

human HDAC8 = biological target: T3, human HDAC8 (Homo sapiens, UniProt Q9BY41); assay: Human HDAC enzyme inhibitor Fluor-de-Lys assay, HDAC8; conditions: 1.3 nM enzyme, 200 μM substrate BML-KI178, 3 h pre-incubation, 60 min reaction; read-out: HDAC8_IC50
T3 construct: purchased Enzo Life Sciences BML-SE145-0100
T3 sequence (Q9BY41 1-377): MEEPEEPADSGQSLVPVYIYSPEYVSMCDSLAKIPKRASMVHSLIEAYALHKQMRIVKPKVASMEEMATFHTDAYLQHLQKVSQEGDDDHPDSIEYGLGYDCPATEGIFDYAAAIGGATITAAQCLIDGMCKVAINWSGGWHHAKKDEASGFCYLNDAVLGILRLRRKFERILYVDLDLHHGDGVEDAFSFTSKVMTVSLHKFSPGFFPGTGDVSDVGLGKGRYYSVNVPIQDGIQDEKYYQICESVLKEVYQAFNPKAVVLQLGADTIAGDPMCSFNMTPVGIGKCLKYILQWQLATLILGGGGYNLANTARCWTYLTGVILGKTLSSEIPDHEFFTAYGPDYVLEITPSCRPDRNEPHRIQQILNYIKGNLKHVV
Description: as §1, §3
(§5) The HDAC 1, 2 assays employed buffer A, which contained 20 mM HEPES, pH 8.0, 1 mM MgCl2, 137 mM NaCl, 2.7 mM KCl, 0.05% BSA. The HDAC3/SMRT assay employed buffer B, consisting of 20 mM HEPES, pH 8.0, 1 mM MgCl2, 50 mM NaCl, 2.7 mM KCl, 0.05% BSA, 0.005% Tween 20, and 10 μM IP4. The HDAC6 assay employed buffer C, consisting of 20 mM HEPES, pH 8.0, 1 mM MgCl2, 137 mM NaCl, 2.7 mM KCl, 0.5 mM TCEP (Calbiochem) and 0.05% BSA. The HDAC8 assay employed buffer D, consisting of 20 mM HEPES, pH 8.0, 1 mM MgCl2, 100 mM NaCl, 20 mM KCl, 0.1% n-octyl-β-D-glucoside (Anatrace, Maumee, OH) and 0.05% BSA. All steps were performed at room temperature (23° C.). The assay was performed by pre-incubating serial dilutions of test compounds with the target HDAC prior to initiation with substrate. Each compound was titrated in a 10-point dose response, using a 1:3 fold dilution scheme, with 0.15 ul of solution added by ECHO555 to the plate, followed by the addition of 20 μl of the appropriate HDAC isoform diluted in appropriate assay buffer. […] Final conditions used for each assay were: 1. HDAC 1, 0.3 nM total enzyme, 20 μM substrate BML-K1104; 2. HDAC 2, 1.5 nM total enzyme, 40 μM substrate BML-K1104; 3. HDAC 3/SMRT, 0.3 nM total enzyme, 20 μM substrate BML-K1104; 4. HDAC 6, 1.3 nM total enzyme, 2.5 μM substrate BML-K1104; 5. HDAC 8, 1.3 nM total enzyme, 200 μM substrate BML-K1178; the final high dose of test compound was 30 μM. For potent compounds, 900 nM was used as the final high dose. The reactions were stopped and developed by addition of 30 ul of HDAC developer solution containing a saturating level of HDAC inhibitor as follows: 1.

HDAC6 = biological target: T4, HDAC6 (Homo sapiens, UniProt Q9UBN7); assay: Human HDAC enzyme inhibitor Fluor-de-Lys assay, HDAC6; conditions: 1.3 nM enzyme, 2.5 μM substrate BML-KI104, 3 h pre-incubation, 60 min reaction; read-out: HDAC6_IC50
T4 sequence (Q9UBN7 1-1215): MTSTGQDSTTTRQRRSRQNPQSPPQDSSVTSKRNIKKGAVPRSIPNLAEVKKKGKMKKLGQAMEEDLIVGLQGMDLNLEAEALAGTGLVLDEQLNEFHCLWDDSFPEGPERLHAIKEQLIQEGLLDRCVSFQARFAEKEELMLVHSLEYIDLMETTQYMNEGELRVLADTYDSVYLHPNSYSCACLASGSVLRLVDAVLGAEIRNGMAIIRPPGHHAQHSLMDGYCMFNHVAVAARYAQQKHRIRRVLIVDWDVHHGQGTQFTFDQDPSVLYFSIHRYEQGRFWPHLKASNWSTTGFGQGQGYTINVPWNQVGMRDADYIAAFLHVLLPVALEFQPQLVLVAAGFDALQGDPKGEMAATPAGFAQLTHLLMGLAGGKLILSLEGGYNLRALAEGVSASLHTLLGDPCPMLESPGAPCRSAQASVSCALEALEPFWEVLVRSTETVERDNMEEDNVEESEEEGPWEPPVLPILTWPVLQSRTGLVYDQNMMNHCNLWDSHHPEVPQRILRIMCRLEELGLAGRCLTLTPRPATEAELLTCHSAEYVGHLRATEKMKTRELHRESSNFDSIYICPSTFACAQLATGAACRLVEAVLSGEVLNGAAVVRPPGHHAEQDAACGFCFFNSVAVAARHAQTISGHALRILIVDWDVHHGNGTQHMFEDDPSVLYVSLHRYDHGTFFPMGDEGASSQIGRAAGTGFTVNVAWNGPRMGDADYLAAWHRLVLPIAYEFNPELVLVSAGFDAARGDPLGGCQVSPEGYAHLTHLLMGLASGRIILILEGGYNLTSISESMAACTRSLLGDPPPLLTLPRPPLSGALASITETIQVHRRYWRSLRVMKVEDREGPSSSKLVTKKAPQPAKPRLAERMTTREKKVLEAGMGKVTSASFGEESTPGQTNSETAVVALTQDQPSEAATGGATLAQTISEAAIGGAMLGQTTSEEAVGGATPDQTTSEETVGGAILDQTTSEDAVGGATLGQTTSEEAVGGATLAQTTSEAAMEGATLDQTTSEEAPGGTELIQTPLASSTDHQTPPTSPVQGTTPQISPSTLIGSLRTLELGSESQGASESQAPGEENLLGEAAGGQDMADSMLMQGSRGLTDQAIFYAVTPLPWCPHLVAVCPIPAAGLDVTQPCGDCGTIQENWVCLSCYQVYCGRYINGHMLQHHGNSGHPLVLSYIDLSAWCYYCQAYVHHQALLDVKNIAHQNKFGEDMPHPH
Description: as §1, §3, §5

T1 sequence (O15379 whole entry): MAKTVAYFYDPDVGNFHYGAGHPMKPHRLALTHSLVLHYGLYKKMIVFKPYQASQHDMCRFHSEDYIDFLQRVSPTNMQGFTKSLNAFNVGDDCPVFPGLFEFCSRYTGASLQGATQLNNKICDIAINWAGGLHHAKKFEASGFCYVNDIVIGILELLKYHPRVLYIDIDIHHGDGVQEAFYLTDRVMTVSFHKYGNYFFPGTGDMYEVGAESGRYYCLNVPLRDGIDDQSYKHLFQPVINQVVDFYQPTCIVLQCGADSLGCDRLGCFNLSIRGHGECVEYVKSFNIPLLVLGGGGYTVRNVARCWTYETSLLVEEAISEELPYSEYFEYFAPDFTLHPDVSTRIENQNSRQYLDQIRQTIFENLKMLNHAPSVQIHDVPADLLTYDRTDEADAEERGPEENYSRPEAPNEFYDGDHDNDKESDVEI
T1 sequence (Q9Y618 1-899 partner limits assumed): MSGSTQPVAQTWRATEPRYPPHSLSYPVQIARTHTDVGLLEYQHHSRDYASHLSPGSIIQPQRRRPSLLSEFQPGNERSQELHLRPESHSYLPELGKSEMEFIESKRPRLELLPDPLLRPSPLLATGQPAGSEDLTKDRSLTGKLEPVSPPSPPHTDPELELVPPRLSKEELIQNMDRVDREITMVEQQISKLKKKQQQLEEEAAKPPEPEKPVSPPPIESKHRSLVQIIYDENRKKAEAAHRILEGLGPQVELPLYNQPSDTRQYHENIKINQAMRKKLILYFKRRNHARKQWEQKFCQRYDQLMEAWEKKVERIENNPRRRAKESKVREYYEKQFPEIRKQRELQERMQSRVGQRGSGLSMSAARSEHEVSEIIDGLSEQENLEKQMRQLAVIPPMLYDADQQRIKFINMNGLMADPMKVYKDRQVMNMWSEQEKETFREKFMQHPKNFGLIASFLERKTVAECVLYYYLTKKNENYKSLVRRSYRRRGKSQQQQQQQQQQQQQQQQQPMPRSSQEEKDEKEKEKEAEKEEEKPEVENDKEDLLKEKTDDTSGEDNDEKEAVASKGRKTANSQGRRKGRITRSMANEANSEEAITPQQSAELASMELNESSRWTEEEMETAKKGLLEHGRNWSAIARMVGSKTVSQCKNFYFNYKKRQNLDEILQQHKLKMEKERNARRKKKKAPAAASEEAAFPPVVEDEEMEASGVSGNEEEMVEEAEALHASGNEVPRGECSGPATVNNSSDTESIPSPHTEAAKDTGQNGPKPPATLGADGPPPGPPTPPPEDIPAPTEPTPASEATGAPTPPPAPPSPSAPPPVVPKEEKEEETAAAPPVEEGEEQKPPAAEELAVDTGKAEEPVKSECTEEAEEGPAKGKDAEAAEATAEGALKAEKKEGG

Compound: CCC(=O)CCCOC[C@H](NC(=O)C1CN(C)C1)c1ncc(-c2cc3ccccc3nc2OC)[nH]1 [Compound 3, (R)—N-(1-(5-(2-methoxyquinolin-3-yl)-1H-imidazol-2-yl)-2-((4-oxohexyl)oxy)ethyl)-1-methylazetidine-3-carboxamide]
- IC50 [1]: 0.298 µM
- IC50 (human HDAC2): 4.35 µM

Compound: CCC(=O)CCCOC[C@H](NC(=O)[C@H]1CC12CCN(C)CC2)c1ncc(-c2cc3ccccc3nc2OC)[nH]1 [Compound 4, (S)—N—((R)-1-(5-(2-methoxyquinolin-3-yl)-1H-imidazol-2-yl)-2-((4-oxohexyl)oxy)ethyl)-6-methyl-6-azaspiro[2.5]octane-1-carboxamide]
- IC50 (human HDAC8): > 45 µM
- IC50 (HDAC6): 23.3 µM

Source: patent publication US12365674B2, “Inhibitors of histone deacetylase useful for the treatment or prevention of HIV infection” (Merck Sharp & Dohme LLC, priority 2019, dated 2025)
